Literature values, collected in patent US20250186347A1 (priority 2025, published 2025).

Tested on: E. faecalis ampicillin-resistant strains
Conditions: reports

- MIC: 4 to 8 µg/mL
Structure (SMILES): CC1(C)S[C@@H]2[C@H](NC(=O)[C@H](N)c3ccccc3)C(=O)N2[C@H]1C(=O)O [ampicillin]
